From PubChem BioAssay (NCI) come the findings set out here.

Among the test systems are HCT-116 colon; HOP-92 NSCLC; HS 578T breast; MCF7 breast; OVCAR-4 ovarian; OVCAR-8 ovarian; SNB-19 CNS; TK-10 renal; U251 CNS; UO-31 renal.
What all share (assay): growth of human tumour cells (NCI), 48 h

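Assay format: 96-well plates, 48-hour exposure. TGI is the concentration that stops growth completely.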

On to `O=P(c1ccccc1)(c1ccccc1)N1O[C@@H](c2ccccc2)C=C[C@H]1c1ccccc1`, for which the TGI in the experiment with HCT-116 colon is 16.1 µM; with HOP-92 NSCLC, 25.6 µM; in the experiment with HS 578T breast, 44.6 µM; in the experiment with MCF7 breast it was 12.6 µM; with OVCAR-4 ovarian, 10.6 µM; in the experiment with OVCAR-8 ovarian it was 32.7 µM. Besides, the TGI in the experiment with SNB-19 CNS was 30 µM; in the experiment on TK-10 renal it was 27.8 µM; in the experiment with U251 CNS it was 16.9 µM; in the experiment with UO-31 renal, 17.3 µM.
In the case of `O=C(NCCN1CCOCC1)c1ccc2cc(C(=O)N3CC(CCl)c4ccc([N+](=O)[O-])cc43)[nH]c2c1` (stereo not given), the TGI was above 100 µM in the experiment on HCT-116 colon; 38.4 µM in the experiment with HOP-92 NSCLC; 52.4 µM in the experiment on HS 578T breast; above 100 µM with MCF7 breast; 32.6 µM in the experiment with OVCAR-4 ovarian; 35.4 µM in the experiment with OVCAR-8 ovarian. Besides, the TGI was 28.8 µM in the experiment on SNB-19 CNS, 36.6 µM with TK-10 renal, 57.8 µM in the experiment with U251 CNS and above 100 µM with UO-31 renal.
On to `Cc1csc(-c2cn(C)c3c2C(=O)C(N)=CC3=O)n1`, for which the TGI in the experiment on HCT-116 colon is above 100 µM; in the experiment with HOP-92 NSCLC, above 100 µM; with HS 578T breast, above 80.2 µM; with MCF7 breast it was above 100 µM; in the experiment with OVCAR-4 ovarian, above 100 µM; in the experiment with OVCAR-8 ovarian, above 100 µM. Further, the TGI in the experiment on SNB-19 CNS, in the experiment with TK-10 renal, in the experiment on U251 CNS and in the experiment on UO-31 renal was above 100 µM each time.
